# In patent US12630534B2 (TAKEDA PHARMACEUTICAL COMPANY LIMITED, priority 2020, dated 2026):
# Target: T1, human GPR139 (Homo sapiens, UniProt Q6DWJ6)
# T1 construct: expressed in transfected cells; host or cells: CHO-TREx (Life Technologies) cells, expression induced with doxycycline
# T1 sequence (Q6DWJ6 1-353): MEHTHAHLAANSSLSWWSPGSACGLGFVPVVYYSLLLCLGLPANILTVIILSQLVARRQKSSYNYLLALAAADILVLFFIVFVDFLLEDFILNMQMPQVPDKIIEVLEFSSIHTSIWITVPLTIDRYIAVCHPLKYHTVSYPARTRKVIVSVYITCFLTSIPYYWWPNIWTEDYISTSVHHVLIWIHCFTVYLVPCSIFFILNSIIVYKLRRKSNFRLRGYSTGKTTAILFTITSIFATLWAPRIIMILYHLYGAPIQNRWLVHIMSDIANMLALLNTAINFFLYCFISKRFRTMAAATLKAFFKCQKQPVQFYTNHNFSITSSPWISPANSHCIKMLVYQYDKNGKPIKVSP
# Experiment: Inhibition rate of the amount of IP1 in GPR139-expressed CHO cells (inverse agonist assay, Test Example 2)
# Type: cell-based
# Settings: relative value, inhibition rate of Example Compound 2 in Test Example 1 defined as 100%; for inhibition at 30 µM: CHO
# Procedure: The measurement of IP1 was made using an IP-ONE HTFR assay kit (cis-bio) and CHO-TREx (Life Technologies) cells stably transfected with GPR139. The CHO-TREx cells expressed human GPR139 with a tetracycline-inducing element. The cells were cultured in a medium containing F12K and 10% tetracycline-free FBS, and the expression of human GPR139 was induced over the course of 17 hours under conditions of 37° C. and 5% CO2 in the presence of 2 μg/mL of doxycycline (Clontech, 631311) in the growth medium on the day before assay. On the day of the test, after the cells were washed with 10 mL of PBS, the cells were detached with TrypLE Express (Life Technologies) and centrifuged at 1,000 rpm to form pellets, and a cell suspension was then prepared using a stimulation buffer (cis-bio, included in the IP-ONE HTRF assay kit).
# The compound was diluted with the stimulation buffer, and 4 μL was added to a 384-well white assay plate (Greiner). The cell suspension was added so that there were 2000 cells per well, and the assay plate was left to stand for 40 minutes at 37° C. Equal amounts of IP1-d2 and Ab-Crp solutions (both available from cis-bio, included in the IP-ONE HTRF assay kit) prepared with a lysis buffer (cis-bio, included in the IP-ONE HTRF assay kit) were mixed, and 4 μL was added to the assay plate and left to stand for one hour at room temperature. After the fluorescence strengths of two wavelengths were measured by the HTRF settings of Envision (PerkinElmer), the value of Ratio={(Signal 665 nm)/(Signal 615 nm)}×10000 was calculated.
# Measurement of the Inhibition Rate of the Amount of IP1 in GPR139-Expressed CHO Cells (Inverse Agonist Assay)
# The activities of the compounds of Examples 1 and 3 to 167 were expressed as relative values in Table 2 by measuring the inhibition rate of the amount of IP1 with the same method as in Test Example 1 and defining the inhibition rate of the amount of IP1 of Example Compound 2 in Test Example 1 as […].
smiles,measurement,value
"CCn1cc(Cn2cc(C)n(-c3cc(OCC4CCO4)cc(C(F)(F)F)c3)c2=O)cn1 (centres unmarked) [Example 49, 1-[(1-ethyl-1H-pyrazol-4-yl)methyl]-4-methyl-3-{3-[(oxetan-2-yl)methoxy]-5-(trifluoromethyl)phenyl}-1,3-dihydro-2H-imidazol-2-one]",inhibition at 30 µM,102%
"CCn1cc(Cn2cc(C)n(-c3cc(OCC4CC4(F)F)cc(C(F)(F)F)c3)c2=O)cn1 (centres unmarked) [Example 50, 3-{3-[(2,2-difluorocyclopropyl)methoxy]-5-(trifluoromethyl)phenyl}-1-[(1-ethyl-1H-pyrazol-4-yl)methyl]-4-methyl-1,3-dihydro-2H-imidazol-2-one]",Inhibition Rate at 30 μM,102%
"CCn1cc(Cn2cc(C)n(-c3cc(OCC4CC4(F)F)cc(C(F)(F)F)c3)c2=O)cn1 (centres unmarked) [Example 51, 3-{3-[(2,2-difluorocyclopropyl)methoxy]-5-(trifluoromethyl)phenyl}-1-[(1-ethyl-1H-pyrazol-4-yl)methyl]-4-methyl-1,3-dihydro-2H-imidazol-2-one]",Inhibition Rate at 30 μM,102%
"CCn1cc(Cn2cc(C)n(-c3cc(OCC4(F)CCC4)cc(C(F)(F)F)c3)c2=O)cn1 [Example 52, 1-[(1-ethyl-1H-pyrazol-4-yl)methyl]-3-{3-[(1-fluorocyclobutyl)methoxy]-5-(trifluoromethyl)phenyl}-4-methyl-1,3-dihydro-2H-imidazol-2-one]",inhibition at 30 µM,99%
"CCn1cc(Cn2c(C)cn(-c3cc(N(C)C4CCOCC4)cc(C(F)(F)F)c3F)c2=O)cn1 [Example 53, 3-[(1-ethyl-1H-pyrazol-4-yl)methyl]-1-{2-fluoro-5-[methyl(oxan-4-yl)amino]-3-(trifluoromethyl)phenyl}-4-methyl-1,3-dihydro-2H-imidazol-2-one]",inhibition at 30 µM,101%
"CCn1cc(Cn2c(C)cn(-c3cc(N4CCOC(F)(F)C4)cc(C(F)(F)F)c3F)c2=O)cn1 [Example 54, 1-[5-(2,2-difluoromorpholin-4-yl)-2-fluoro-3-(trifluoromethyl)phenyl]-3-[(1-ethyl-1H-pyrazol-4-yl)methyl]-4-methyl-1,3-dihydro-2H-imidazol-2-one]",inhibition at 30 µM,101%
"CCn1cc(Cn2c(C)cn(-c3cc(N4CCO[C@H](C)C4)cc(OCC(F)(F)F)c3F)c2=O)cn1 [Example 55, 3-[(1-ethyl-1H-pyrazol-4-yl)methyl]-1-{2-fluoro-5-[(2R)-2-methylmorpholin-4-yl]-3-(2,2,2-trifluoroethoxy)phenyl}-4-methyl-1,3-dihydro-2H-imidazol-2-one]",inhibition at 30 µM,101%
"CCn1cc(Cn2cc(C)n(-c3cc(OCC4(F)CC4)cc(C(F)(F)F)c3)c2=O)cn1 [Example 56, 1-[(1-ethyl-1H-pyrazol-4-yl)methyl]-3-{3-[(1-fluorocyclopropyl)methoxy]-5-(trifluoromethyl)phenyl}-4-methyl-1,3-dihydro-2H-imidazol-2-one]",inhibition at 30 µM,98%
"CCn1cc(Cn2c(C)cn(-c3cc(N4CCO[C@H](C)C4)cc(C(F)(F)F)c3Cl)c2=O)cn1 [Example 57, 1-{2-chloro-5-[(2R)-2-methylmorpholin-4-yl]-3-(trifluoromethyl)phenyl}-3-[(1-ethyl-1H-pyrazol-4-yl)methyl]-4-methyl-1,3-dihydro-2H-imidazol-2-one]",inhibition at 30 µM,101%
"CCn1cc(Cn2c(C)cn(-c3cc(N(C)C4CCOCC4)cc(C(F)(F)F)c3Cl)c2=O)cn1 [Example 58, 1-{2-chloro-5-[methyl(oxan-4-yl)amino]-3-(trifluoromethyl)phenyl}-3-[(1-ethyl-1H-pyrazol-4-yl)methyl]-4-methyl-1,3-dihydro-2H-imidazol-2-one]",inhibition at 30 µM,98%
"CCn1cc(Cn2c(C)c(C)n(-c3nc(N4CCO[C@H](C)C4)cc(C(F)(F)F)c3F)c2=O)cn1 [Example 59, 1-[(1-ethyl-1H-pyrazol-4-yl)methyl]-3-{3-fluoro-6-[(2R)-2-methylmorpholin-4-yl]-4-(trifluoromethyl)pyridin-2-yl}-4,5-dimethyl-1,3-dihydro-2H-imidazol-2-one]",inhibition at 30 µM,102%
"CCn1cc(Cn2c(C)c(C)n(-c3cc(C(F)(F)F)cc(N4CCO[C@H](C)C4)n3)c2=O)cn1 [Example 60, 1-[(1-Ethyl-1H-pyrazole-4-yl)methyl]-4,5-dimethyl-3-{6-[(2R)-2-methylmorpholine-4-yl]-4-(trifluoromethyl)pyridine-2-yl}-1,3-dihydro-2H-imidazole-2-one]",inhibition at 30 µM,101%
"CC(C)n1cc(Cn2ccn(-c3cc(N(C)C4CCOCC4)cc(C(F)(F)F)c3F)c2=O)cn1 [Example 61, 1-{2-fluoro-5-[methyl(oxan-4-yl)amino]-3-(trifluoromethyl)phenyl}-3-{[1-(propan-2-yl)-1H-pyrazol-4-yl]methyl}-1,3-dihydro-2H-imidazol-2-one]",inhibition at 30 µM,102%
"CCn1cc(Cn2c(C)cn(-c3cc(N4CCO[C@H](C)C4)cc(C(F)(F)F)c3C)c2=O)cn1 [Example 62, 3-[(1-ethyl-1H-pyrazol-4-yl)methyl]-4-methyl-1-{2-methyl-5-[(2R)-2-methylmorpholin-4-yl]-3-(trifluoromethyl)phenyl}-1,3-dihydro-2H-imidazol-2-one]",inhibition at 30 µM,99%
"CCn1cc(Cn2c(C)c(C)n(-c3cc(N4CCOC(F)(F)C4)cc(C(F)(F)F)c3)c2=O)cn1 [Example 63, 1-[3-(2,2-difluoromorpholin-4-yl)-5-(trifluoromethyl)phenyl]-3-[(1-ethyl-1H-pyrazol-4-yl)methyl]-4,5-dimethyl-1,3-dihydro-2H-imidazol-2-one]",inhibition at 30 µM,100%
"Cc1cn(-c2nc(N3CCO[C@H](C)C3)cc(C(F)(F)F)c2F)c(=O)n1Cc1cnn(C(C)C)c1 [Example 64, 1-{3-fluoro-6-[(2R)-2-methylmorpholin-4-yl]-4-(trifluoromethyl)pyridin-2-yl}-4-methyl-3-{[1-(propan-2-yl)-1H-pyrazol-4-yl]methyl}-1,3-dihydro-2H-imidazol-2-one]",inhibition at 30 µM,98%
"CCn1cc(Cn2cc(C)n(-c3cc(Br)cc(OCC4CC(F)(F)C4)c3)c2=O)cn1 [Example 65, 3-{3-bromo-5-[(3,3-difluorocyclobutyl)methoxy]phenyl}-1-[(1-ethyl-1H-pyrazol-4-yl)methyl]-4-methyl-1,3-dihydro-2H-imidazol-2-one]",inhibition at 30 µM,98%
"CCn1cc(Cn2cc(C)n(-c3cc(OC[C@@H]4CCCO4)cc(C(F)(F)F)c3)c2=O)cn1 [Example 66, 1-[(1-ethyl-1H-pyrazol-4-yl)methyl]-4-methyl-3-[3-{[(2S)-oxolan-2-yl]methoxy}-5-(trifluoromethyl)phenyl]-1,3-dihydro-2H-imidazol-2-one]",inhibition at 30 µM,99%
"CCn1cc(Cn2cc(C)n(-c3cc(OCC4CC(F)(F)C4)cc(C4CC4)c3)c2=O)cn1 [Example 67, 3-{3-cyclopropyl-5-[(3,3-difluorocyclobutyl)methoxy]phenyl}-1-[(1-ethyl-1H-pyrazol-4-yl)methyl]-4-methyl-1,3-dihydro-2H-imidazol-2-one]",inhibition at 30 µM,98%
"CCn1cc(Cn2cc(C)n(-c3cc(OCC4CC(F)(F)C4)cc(C(F)F)c3)c2=O)cn1 [Example 68, 3-{3-[(3,3-difluorocyclobutyl)methoxy]-5-(difluoromethyl)phenyl}-1-[(1-ethyl-1H-pyrazol-4-yl)methyl]-4-methyl-1,3-dihydro-2H-imidazol-2-one]",inhibition at 30 µM,98%
"CCn1cc(Cn2ccn(-c3cc(OCC4CC(F)(F)C4)cc(C(F)F)c3Cl)c2=O)cn1 [Example 69, 1-{2-chloro-5-[(3,3-difluorocyclobutyl)methoxy]-3-(difluoromethyl)phenyl}-3-[(1-ethyl-1H-pyrazol-4-yl)methyl]-1,3-dihydro-2H-imidazol-2-one]",inhibition at 30 µM,95%
"CCn1cc(Cn2c(C)c(C)n(-c3cc(N4CCOC(F)(F)C4)cc(C(F)(F)F)c3F)c2=O)cn1 [Example 70, 1-[5-(2,2-difluoromorpholin-4-yl)-2-fluoro-3-(trifluoromethyl)phenyl]-3-[(1-ethyl-1H-pyrazol-4-yl)methyl]-4,5-dimethyl-1,3-dihydro-2H-imidazol-2-one]",inhibition at 30 µM,100%
"CCn1cc(Cn2cc(C)n(-c3cc(OCC(F)F)cc(N4CCO[C@H](C)C4)c3)c2=O)cn1 [Example 71, 3-{3-(2,2-difluoroethoxy)-5-[(2R)-2-methylmorpholin-4-yl]phenyl}-1-[(1-ethyl-1H-pyrazol-4-yl)methyl]-4-methyl-1,3-dihydro-2H-imidazol-2-one]",inhibition at 30 µM,98%
